Converted amounts (≈) assume the structure as drawn.
Key:
[1] = at 20° C.; cited from earlier work
[2] = Comparative experiment: urea treated with DMPP/NBPT emulsion, degradation on storage (HPLC); conditions: for amount broken down: after a period of 7 days
[3] = Storage stability test of treated urea fertilizers (NBPT and DMPSA content over time); assay type: physicochemical; conditions: urea coated with DMPSA/NBPT emulsion (invention, FIG. 2) versus sequential application (comparative, FIG. 1); stored 90 days under standard conditions in a climate-controlled cabinet
Experimental: 20 kg of granulated urea was initially charged in a mixer. 35 g of the NBPT formulation and 79 g of DMPSA formulation were introduced into a spray bottle and shaken until a homogeneous emulsion had formed. The formulation emulsion was immediately sprayed onto the urea, with intermittent shaking of the spray bottle in order to prevent settling of the emulsion. The mixer was operated for a further 10 minutes until a homogeneous product was obtained.
In a comparative experiment, identical amounts of DMPSA and NBPT were applied to urea. DMPSA formulation was applied first to the urea by the method described above, and the NBPT formulation was applied after drying.
Storage stability tests were conducted for both the urea fertilizers treated. They were stored for a period of 90 days under standard conditions in a climate-controlled cabinet. The NBPT and DMPSA content was determined at time intervals.

| SMILES | water solubility [1] | degradation characteristics [2] | amount broken down [2] | decrease in NBPT and DMPSA content over time [3] |
| --- | --- | --- | --- | --- |
| CCCCCC(CO)CCC (stereo not shown) [2-Propylheptan-1-ol] | 58 µg/mL (≈ 366 µM) |  |  |  |
| Cc1c[nH]nc1C.O=P(O)(O)O [DMPP, 3,4-dimethylpyrazole phosphate, reference compound] |  | rapid degradation characteristics | about 50% |  |
| Cc1cn(C(CC(=O)O)C(=O)O)nc1C (stereo not shown) [DMPSA, 2-(N-3,4-dimethylpyrazole)succinic acid] |  |  |  | significantly smaller |
| CCCCNP(N)(N)=S [NBPT, N-(n-butyl)-thiophosphoric acid triamide] |  | rapid degradation characteristics | 100% | significantly smaller |

— US20210214285A1, “EMULSION FOR TREATING UREA-CONTAINING FERTILIZERS” (EUROCHEM AGRO GMBH, priority 2018, published 2021)
